The results in this text go back to patent US10201516B2 (The Regents of the University of California, priority 2014, dated 2019).

In one experiment the test system is CaMKii. Nature of the experiment: Western blot of phospho-CaMKii in rescued Rasless MEFs. It is filed as cell-based, mouse. The procedure:
Experimental cells were washed twice in ice-cold PBS and lysed in 1% Triton lysis buffer [25 mmol/L Tris pH 7.5, 150 mmol/L NaCl, 1% Triton X-100, 1 mmol/L EDTA, 1 mmol/L EGTA, 20 mmol/L NaF, 1 mmol/L […], and 1 mmol/L DTT] supplemented with a protease inhibitor cocktail (Roche) and cleared by centrifugation. Protein concentrations were determined by the Bio-Rad Protein Assay (Bio-Rad). Equal amounts of protein extracts were resolved using SDS-PAGE (NuPAGE; Invitrogen), transferred to a nitrocellulose membrane, and immunoblotted with primary antibodies indicated, followed by secondary antibodies labeled with either IRDye800 (Rockland) or Alexa Fluor 680 (Molecular Probes) and were visualized using a LI-COR Odyssey scanner. A complete list of primary antibodies is provided in the Extended Experimental Procedures.
A general note: A western blot detects proteins with antibodies after separation by electrophoresis.

For experiment [1], the system named is PANC2.13 and PANC1 orthotopic tumors. Kind of experiment: Prevention of orthotopic human pancreatic tumors in NOD-SCID mice. It is filed as in vivo, mouse. The procedure:
(§1) The drug was daily administrated into either NOD-SCID or athymic nude mice by oral gavages (OG) at 1 mg/kg or intraperitoneal (I.P) injection at 0.5 mg/kg. 10% DMSO, 10% cremophor, and 80% saline solutions were used as the solvent and vehicle control.

For experiment [2], the system named is PANC2.13 and PANC2.03 orthotopic tumors. Kind of experiment: Established orthotopic human pancreatic tumors, burden by human cfDNA in plasma. Format: in vivo, mouse. To be noted: treatment from 14th day post-implantation, over time (FIG. 7B). As for the experimental part:
as §1
All blood samples were collected in K2EDTA containing tubes (BD Microtainer, Ref 365974) and centrifuged at 1,500 g for 10 min. Then the supernatants were carefully collected from the top portion of the plasma to eliminate the possibility of cell contaminations. The plasma was stored at −80° C. until further use. The cfDNA was extracted from 100 μL of plasma using NucleoSpin Plasma XS kit (Macherey-Nagel; 740900).
Nucleic acid concentrations in all plasma samples were measured by quantitative polymerase chain reaction (PCR) using the AB7900HT (Applied Biosystems, Foster City, CA, USA) and TaqMan Universal PCR Master Mix (Applied Biosystems) according to the manufacturer's protocol. For quantification of human β-actin genomic DNA in mouse plasma samples, the following custom primers and probe sets were used: […]

`CC(=O)O[C@@]12C[C@@H](C)[C@@]3(O)C(C=C(CO)C[C@]4(O)C(=O)C(C)=C[C@@H]34)[C@@H]1C2(C)C` (some centres unmarked) [prostratin, 12-deoxyphorbol-13-acetate]: in the experiment with CaMKii (Rasless MEFs rescued with H-Ras^V12 (FIG. 13C)), the phospho-CaMKii response result is listed as “minimal responses”. In the experiment on CaMKii (Rasless MEFs rescued with K-Ras(4B)^V12 (FIG. 13C)), the phospho-CaMKii result was “increased phospho-CaMKii”. Besides, in experiment [1] (FIG. 6E and FIG. 14B), the “sizes of orthotopic tumors by BLI” value is recorded as “dramatically reduced the sizes of orthotopic tumors”. Moreover, the “metastasis to the peritoneum” value in experiment [1] (FIG. 6E and FIG. 14C) was “reduced metastasis to the peritoneum”. The “formation of primary tumors in the pancreas (H&E staining)” value in experiment [1] (FIG. 6F and FIG. 14B) is recorded as “most of prostratin treated mice did not show formation of primary tumors in the pancreas”. Moreover, in experiment [1] (FIG. 6G and FIG. 14B), the “Ki67 in orthotopic tumors” value is recorded as “much lower Ki67”. In addition, the “tumor burden in the orthotopic sites” value in experiment [1] (NOD-SCID mice, daily oral treatment, vs control) is reported as “lower tumor burden”. The “concentration of human specific cfDNA” value in experiment [2] is on record as “dramatically decreased”.
